What follows are compounds tested against T1, Aurora-2 (Homo sapiens, UniProt O14965) (assay: Inhibition assay of Aurora-2 activity (SPA technology)). Settings: screened according to the methods of the pharmacology section; read-out: IC50 values for Aurora-2 inhibition.
T1 sequence (O14965 1-403): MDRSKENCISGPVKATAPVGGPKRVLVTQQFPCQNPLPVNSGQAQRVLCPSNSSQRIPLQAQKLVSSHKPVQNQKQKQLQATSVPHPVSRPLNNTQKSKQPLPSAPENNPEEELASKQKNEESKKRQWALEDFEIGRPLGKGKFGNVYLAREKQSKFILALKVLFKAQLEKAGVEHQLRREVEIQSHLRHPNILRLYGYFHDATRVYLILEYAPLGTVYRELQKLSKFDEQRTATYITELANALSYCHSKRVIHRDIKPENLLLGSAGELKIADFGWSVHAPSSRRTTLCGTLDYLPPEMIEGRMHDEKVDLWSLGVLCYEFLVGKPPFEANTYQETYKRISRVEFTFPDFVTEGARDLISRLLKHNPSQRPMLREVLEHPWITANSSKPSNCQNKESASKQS
Type: biochemical
Protocol: The inhibiting activity and the potency of selected compounds is determined through a method of assay based on the use of the SPA technology (Amersham Pharmacia Biotech).
The assay consists of the transfer of radioactivity labelled phosphate moiety by the kinase to a biotinylated substrate. The resulting 33P-labelled biotinylated product is allowed to bind to streptavidin-coated SPA beads (biotin capacity 130 pmol/mg), and light emitted was measured in a scintillation counter.
Inhibition Assay of Aurora-2 Activity
After 60 minutes at room temperature incubation, reaction was stopped and biotinylated peptide captured by adding 100 μl of bead suspension.
Stratification: 100 μl of CsCl2 5 M were added to each well and let stand 4 hour before radioactivity was counted in the Top-Count instrument.
Experimental data were analyzed by the computer program GraphPad Prizm using the four parameter logistic equation: y=bottom+(top−bottom)/(1+10^((logIC50−x)*slope)) where x is the logarithm of the inhibitor concentration, y is the response; y starts at bottom and goes to top with a sigmoid shape.

IC50, < 20 nM:
CC(C)(NC(=O)c1cc2c(NC(=O)c3ccc(CNC4CC4)cc3)n[nH]c2s1)c1ccccc1 [Compound 62, 3-(4-Cyclopropylaminomethyl-benzoylamino)-1H-thieno[2,3-c]pyrazole-5-carboxylic acid (1-methyl-1-phenyl-ethyl)-amide]
Cn1cccc1C(=O)Nc1n[nH]c2sc(C(=O)NC(C)(C)c3ccccc3)cc12 [Compound 21, N-(1-methyl-1-phenylethyl)-3-{[(1-methyl-1H-pyrrol-2-yl)carbonyl]amino}-1H-thieno[2,3-c]pyrazole-5-carboxamide]
COc1ccc(C(=O)Nc2n[nH]c3sc(C(=O)NC4(c5ccccc5)CC4)cc23)cc1 [Compound 134, 3-(4-Methoxy-benzoylamino)-1H-thieno[2,3-c]pyrazole-5-carboxylic acid (1-phenyl-cyclopropyl)-amide]
CN1CCN(c2ccc(C(=O)Nc3n[nH]c4sc(C(=O)NC(C)(C)c5ccc(F)cc5)cc34)cc2)CC1 [Compound 139, 3-[4-(4-Methyl-piperazin-1-yl)-benzoylamino]-1H-thieno[2,3-c]pyrazole-5-carboxylic acid [1-(4-fluoro-phenyl)-1-methyl-ethyl]amide]
CN1CCN(c2ccc(C(=O)Nc3n[nH]c4sc(C(=O)NC5(c6ccccc6)CC5)cc34)cc2)CC1 [Compound 35, 3-{[4-(4-methylpiperazin-1-yl)benzoyl]amino}-N-(1-phenylcyclopropyl)-1H-thieno[2,3-c]pyrazole-5-carboxamide]
CC[C@@H](NC(=O)c1cc2c(NC(=O)c3ccc(N4CCN(C)CC4)cc3)n[nH]c2s1)c1ccccc1 [Compound 30, 3-{[4-(4-methylpiperazin-1-yl)benzoyl]amino}-N-[(1R)-1-phenylpropyl]-1H-thieno[2,3-c]pyrazole-5-carboxamide]
CN1CCN(c2ccc(C(=O)Nc3n[nH]c4sc(C(=O)N[C@H](CN5CCOCC5)c5ccccc5)cc34)cc2)CC1 [Compound 31, 3-{[4-(4-methylpiperazin-1-yl)benzoyl]amino}-N-[(1S)-2-morpholin-4-yl-1-phenylethyl]-1H-thieno[2,3-c]pyrazole-5-carboxamide]
CC(C)(NC(=O)c1cc2c(NC(=O)c3ccc(N4CCS(=O)(=O)CC4)cc3)n[nH]c2s1)c1ccccc1 [Compound 144, 3-[4-(1,1-Dioxo-thiomorpholin-4-yl)-benzoylamino]-1H-thieno[2,3-c]pyrazole-5-carboxylic acid (1-methyl-1-phenyl-ethyl)-amide]
CC(C)(NC(=O)c1cc2c(NC(=O)c3ccc(CN4CCCCC4)cc3)n[nH]c2s1)c1cccc(F)c1 [Compound 51, 3-(4-Piperidin-1-ylmethyl-benzoylamino)-1H-thieno[2,3-c]pyrazole-5-carboxylic acid [1-(3-fluoro-phenyl)-1-methyl-ethyl]-amide]
CC(C)(NC(=O)c1cc2c(NC(=O)c3ccc(CNC4CCC4)cc3)n[nH]c2s1)c1ccccc1 [Compound 63, 3-(4-Cyclobutylaminomethyl-benzoylamino)-1H-thieno[2,3-c]pyrazole-5-carboxylic acid (1-methyl-1-phenyl-ethyl)-amide]
CC(C)(NC(=O)c1cc2c(NC(=O)c3ccc(CN4CCOCC4)cc3)n[nH]c2s1)c1cccc(F)c1 [Compound 42, 3-(4-Morpholin-4-ylmethyl-benzoylamino)-1H-thieno[2,3-c]pyrazole-5-carboxylic acid [1-(3-fluoro-phenyl)-1-methyl-ethyl]-amide]
CN1CCN(c2ccc(C(=O)Nc3n[nH]c4sc(C(=O)NC(C)(C)c5cccc(Cl)c5)cc34)cc2)CC1 [Compound 132, 3-[4-(4-Methyl-piperazin-1-yl)-benzoylamino]-1H-thieno[2,3-c]pyrazole-5-carboxylic acid[1-(3-chloro-phenyl)-1-methyl-ethyl]amide]
CC(C)(NC(=O)c1cc2c(NC(=O)c3ccc(F)cc3)n[nH]c2s1)c1ccccc1 [Compound 8, 3-[(4-fluorobenzoyl)amino]-N-(1-methyl-1-phenylethyl)-1H-thieno[2,3-c]pyrazole-5-carboxamide]
CC(C)(NC(=O)c1cc2c(NC(=O)c3ccc(N4CCOCC4)nc3)n[nH]c2s1)c1ccccc1 [Compound 136, 3-[(6-Morpholin-4-yl-pyridine-3-carbonyl)-amino]-1H-thieno[2,3-c]pyrazole-5-carboxylic acid (1-methyl-1-phenyl-ethyl)-amide]
CC(C)(NC(=O)c1cc2c(NC(=O)c3cccs3)n[nH]c2s1)c1cccc(F)c1 [Compound 124, 3-[(Thiophene-2-carbonyl)-amino]-1H-thieno[2,3-c]pyrazole-5-carboxylic acid [1-(3-fluoro-phenyl)-1-methyl-ethyl]-amide]
CN1CCC(Oc2ccc(C(=O)Nc3n[nH]c4sc(C(=O)NC(C)(C)c5ccccc5)cc34)cc2)CC1 [Compound 25, N-(1-methyl-1-phenylethyl)-3-({4-[(1-methylpiperidin-4-yl)oxy]benzoyl}amino)-1H-thieno[2,3-c]pyrazole-5-carboxamide]
CC(C)(NC(=O)c1cc2c(NC(=O)c3ccc(N4CCOCC4)cc3)n[nH]c2s1)c1cccc(S(C)(=O)=O)c1 [Compound 147, 3-(4-Morpholin-4-yl-benzoylamino)-1H-thieno[2,3-c]pyrazole-5-carboxylic acid [1-(3-methanesulfonyl-phenyl)-1-methyl-ethyl]amide]
C[C@](CN1CCOCC1)(NC(=O)c1cc2c(NC(=O)c3ccc(N4CCOCC4)cc3)n[nH]c2s1)c1ccccc1 [Compound 137, 3-(4-Morpholin-4-yl-benzoylamino)-1H-thieno[2,3-c]pyrazole-5-carboxylic acid ((S)-1-methyl-2-morpholin-4-yl-1-phenyl-ethyl)-amide]
CN1CCN(c2ccc(C(=O)Nc3n[nH]c4sc(C(=O)NC(C)(C)c5ccccc5F)cc34)cc2)CC1 [Compound 141, 3-[4-(4-Methyl-piperazin-1-yl)-benzoylamino]-1H-thieno[2,3-c]pyrazole-5-carboxylic acid[1-(2-fluoro-phenyl)-1-methyl-ethyl]amide]
CC(C)(NC(=O)c1cc2c(NC(=O)c3ccc(CN4CCNCC4)cc3)n[nH]c2s1)c1ccccc1 [Compound 47, 3-(4-piperazin-1-ylmethyl-benzoylamino)-1H-thieno[2,3-c]pyrazole-5-carboxylic acid (1-methyl-1-phenyl-ethyl)-amide]
O=C(Nc1n[nH]c2sc(C(=O)N[C@H](CN3CCOCC3)c3ccccc3)cc12)c1cccs1 [Compound 15, N-[(1S)-2-morpholin-4-yl-1-phenylethyl]-3-[(thien-2-ylcarbonyl)amino]-1H-thieno[2,3-c]pyrazole-5-carboxamide]
C[C@@H](NC(=O)c1cc2c(NC(=O)c3cccs3)n[nH]c2s1)c1ccc(F)cc1 [Compound 17, N-[(1R)-1-(4-fluorophenyl)ethyl]-3-[(thien-2-ylcarbonyl)amino]-1H-thieno[2,3-c]pyrazole-5-carboxamide]
CC(C)(NC(=O)c1cc2c(NC(=O)c3ccc(CN4CCC4)cc3)n[nH]c2s1)c1ccccc1 [Compound 53, 3-(4-Azetidin-1-ylmethyl-benzoylamino)-1H-thieno[2,3-c]pyrazole-5-carboxylic acid (1-methyl-1-phenyl-ethyl)-amide]
CC(C)(NC(=O)c1cc2c(NC(=O)c3ccco3)n[nH]c2s1)c1ccccc1 [Compound 24, 3-(2-furoylamino)-N-(1-methyl-1-phenylethyl)-1H-thieno[2,3-c]pyrazole-5-carboxamide]
CC(C)(NC(=O)c1cc2c(NC(=O)c3cccs3)n[nH]c2s1)c1ccccc1F [Compound 123, 3-[(Thiophene-2-carbonyl)-amino]-1H-thieno[2,3-c]pyrazole-5-carboxylic acid [1-(2-fluoro-phenyl)-1-methyl-ethyl]-amide]
CC(C)(NC(=O)c1cc2c(NC(=O)c3ccc(CN4CCOCC4)cc3)n[nH]c2s1)c1ccccc1 [Compound 38, 3-(4-Morpholin-4-ylmethyl-benzoylamino)-1H-thieno[2,3-c]pyrazole-5-carboxylic acid (1-methyl-1-phenyl-ethyl)-amide]
CC(C)(NC(=O)c1cc2c(NC(=O)c3ccc(N4CCOCC4)cc3)n[nH]c2s1)c1ccccc1F [Compound 148, 3-(4-Morpholin-4-yl-benzoylamino)-1H-thieno[2,3-c]pyrazole-5-carboxylic acid [1-(2-fluoro-phenyl)-1-methyl-ethyl]-amide]
CC(C)(NC(=O)c1cc2c(NC(=O)c3ccc(N4CCOCC4)cc3)n[nH]c2s1)c1ccc(F)cc1 [Compound 150, 3-(4-Morpholin-4-yl-benzoylamino)-1H-thieno[2,3-c]pyrazole-5-carboxylic acid [1-(4-fluoro-phenyl)-1-methyl-ethyl]-amide]
